In patent publication US12590124B2, “Peptide with neutralizing activity against severe acute respiratory syndrome coronavirus 2” (CAREGEN CO, LTD., priority 2020, dated 2026):
Where two headings read alike, the source gives them in different places. Where no end group is shown, it is not given here.

System: SARS-CoV-2
Conditions: 1 h

Substance	Inhibition rate (2.5 mM)	Inhibition rate (10 mM)
KFNRRHH [SEQ ID NO: 2, KFNRRHH]	51%	96%
KYLLVHRPYYRR [SEQ ID NO: 3, KYLLVHRPYYRR]	98%	98%
RSYMTTHHEQF [SEQ ID NO: 1, RSYMTTHHEQF]	21%	100%
WVPYQARVPYPR [SEQ ID NO: 4, WVPYQARVPYPR]	55%	98%
